According to patent US11325938B2, “CD73 inhibitors” (ORIC Pharmaceuticals, Inc., priority 2018, dated 2022):

Target: CD73 (Homo sapiens (Human), UniProt P21589)
Experiment: Biochemical assay: inhibition of CD73 activity (AMP hydrolysis, Malachite Green readout)
Details: CD73 0.3208 nM, AMP 15 μM, 25 mM Tris-HCl pH 7.4, RT, absorbance 620 nm
How it was run: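 Human CD73 (320 pM final) preincubated 15 min at RT with compounds (10-point ½-log titration from 100 μM, duplicates) in 25 mM Tris-HCl pH 7.4, 5 mM MgCl2, 0.01% Brij-35, 0.01% BSA. 15 μM AMP added, 10 min at RT; released phosphate read by Malachite Green absorbance; IC50 determined.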

Sequence of CD73 (P21589 27-574): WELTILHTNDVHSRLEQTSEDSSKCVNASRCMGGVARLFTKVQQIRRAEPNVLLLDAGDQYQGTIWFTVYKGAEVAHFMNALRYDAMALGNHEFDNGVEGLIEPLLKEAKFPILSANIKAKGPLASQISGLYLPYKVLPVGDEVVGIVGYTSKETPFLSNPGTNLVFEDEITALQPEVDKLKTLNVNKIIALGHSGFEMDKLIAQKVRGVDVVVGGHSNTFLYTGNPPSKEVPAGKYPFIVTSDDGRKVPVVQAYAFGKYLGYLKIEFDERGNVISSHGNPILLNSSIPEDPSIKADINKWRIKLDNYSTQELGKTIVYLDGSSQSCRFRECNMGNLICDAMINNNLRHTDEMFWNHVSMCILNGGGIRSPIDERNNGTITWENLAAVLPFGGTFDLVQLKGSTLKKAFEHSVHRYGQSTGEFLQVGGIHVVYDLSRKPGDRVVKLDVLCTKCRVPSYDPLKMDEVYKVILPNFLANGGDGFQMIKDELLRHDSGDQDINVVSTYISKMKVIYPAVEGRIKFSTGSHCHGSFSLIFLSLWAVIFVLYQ

Structure (SMILES) | IC50
O=P(O)(O)C(CCO)S(=O)(=O)C[C@H]1O[C@@H](n2ncc3c(NC4CCCC4)nc(Cl)nc32)[C@H](O)[C@@H]1O (stereo partly drawn) [Example 34, (1-((((2S,3S,4R,5R)-5-(6-chloro-4-(cyclopentylamino)-1H-pyrazolo[3,4-d]pyrimidin-1-yl)-3,4-dihydroxytetrahydrofuran-2-yl)methyl)sulfonyl)-3-hydroxypropyl)phosphonic acid] | 100 to 1000 nM
COC[C@@H](OC[C@H]1O[C@@H](n2ncc3c(NC4CCCC4)nc(Cl)nc32)[C@H](O)[C@@H]1O)P(=O)(O)O [Example 64, ((S)-1-(((2R,3S,4R,5R)-5-(6-chloro-4-(cyclopentylamino)-1H-pyrazolo[3,4-d]pyrimidin-1-yl)-3,4-dihydroxytetrahydrofuran-2-yl)methoxy)-2-methoxyethyl)phosphonic acid] | ≤ 100 nM
O=P(O)(O)C(OC[C@H]1O[C@@H](n2ncc3c(NC4CCCC4)nc(Cl)nc32)[C@H](O)[C@@H]1O)c1nnn[nH]1 (stereo partly drawn) [Example 35, ((((2R,3S,4R,5R)-5-(6-chloro-4-(cyclopentylamino)-1H-pyrazolo[3,4-d]pyrimidin-1-yl)-3,4-dihydroxytetrahydrofuran-2-yl)methoxy)(1H-tetrazol-5-yl)methyl)phosphonic acid] | ≤ 100 nM
COC[C@](C)(OC[C@H]1O[C@@H](n2ncc3c(NCC4CC4)nc(Cl)nc32)[C@H](O)[C@@H]1O)P(=O)(O)O [Example 131, ((R)-2-(((2R,3S,4R,5R)-5-(6-chloro-4-((cyclopropylmethyl)amino)-1H-pyrazolo[3,4-d]pyrimidin-1-yl)-3,4-dihydroxytetrahydrofuran-2-yl)methoxy)-1-methoxypropan-2-yl)phosphonic acid] | ≤ 100 nM

Further lines, results first:

IC50 | Structure (SMILES)
≤ 100 nM | Cn1nnc(CC(CO)(OC[C@H]2O[C@@H](n3ncc4c(NC5CCCC5)nc(Cl)nc43)[C@H](O)[C@@H]2O)P(=O)(O)O)n1 (stereo partly drawn) [Example 96, (2-(((2R,3S,4R,5R)-5-(6-chloro-4-(cyclopentylamino)-1H-pyrazolo[3,4-d]pyrimidin-1-yl)-3,4-dihydroxytetrahydrofuran-2-yl)methoxy)-1-hydroxy-3-(2-methyl-2H-tetrazol-5-yl)propan-2-yl)phosphonic acid]
≤ 100 nM | O=P(O)(O)[C@@](CO)(Cc1nn[nH]n1)OC[C@H]1O[C@@H](n2ncc3c(NC4CCCC4)nc(CO)nc32)[C@H](O)[C@@H]1O (racemic) [Example 218, rac-((R)-2-(((2R,3S,4R,5R)-5-(4-(cyclopentylamino)-6-(hydroxymethyl)-1H-pyrazolo[3,4-d]pyrimidin-1-yl)-3,4-dihydroxytetrahydrofuran-2-yl)methoxy)-1-hydroxy-3-(2H-tetrazol-5-yl)propan-2-yl)phosphonic acid]
≤ 100 nM | C[C@@H](O)COc1nc(NC2CCCC2)c2cnn([C@@H]3O[C@H](COC(CO)(CO)P(=O)(O)O)[C@@H](O)[C@H]3O)c2n1 (racemic) [Example 191, rac-(2-(((2R,3S,4R,5R)-5-(4-(cyclopentylamino)-6-((R)-2-hydroxypropoxy)-1H-pyrazolo[3,4-d]pyrimidin-1-yl)-3,4-dihydroxytetrahydrofuran-2-yl)methoxy)-1,3-dihydroxypropan-2-yl)phosphonic acid]
≤ 100 nM | COCCOc1nc(NC2CCCC2)c2cnn([C@@H]3O[C@H](COC(C)(CO)P(=O)(O)O)[C@@H](O)[C@H]3O)c2n1 (stereo partly drawn) [Example 145, (2-(((2R,3S,4R,5R)-5-(4-(cyclopentylamino)-6-(2-methoxyethoxy)-1H-pyrazolo[3,4-d]pyrimidin-1-yl)-3,4-dihydroxytetrahydrofuran-2-yl)methoxy)-1-hydroxypropan-2-yl)phosphonic acid]
≤ 100 nM | COCC(COC)(OC[C@H]1O[C@@H](n2ncc3c(NC4CCCC4)nc(Cl)nc32)[C@H](O)[C@@H]1O)P(=O)(O)O [Example 87, [1-[[(2R,3S,4R,5R)-5-[6-Chloro-4-(cyclopentylamino)pyrazolo[3,4-d]pyrimidin-1-yl]-3,4-dihydroxy-tetrahydrofuran-2-yl]methoxy]-2-methoxy-1-(methoxymethyl)ethyl]phosphonic acid]
